This is an account of results in patent US8658800B2 (priority 2010, dated 2014).

Read-outs that look alike come from different tables or passages of the source.

Series [1] can be described thus: logP by HPLC on reversed-phase columns (C 18), EEC Directive 79/831 Annex V.A8. Type of series: physicochemical. The method, then:
The logP values reported in the table above and in the Preparation Examples were determined in accordance with EEC Directive 79/831 Annex V.A8 by HPLC (High Performance Liquid Chromatography) on reversed-phase columns (C 18), with the following methods:
The LC-MS determination in the acidic range is carried out at pH 2.7 using the mobile phases 0.1% aqueous formic acid and acetonitrile (contains 0.1% formic acid), linear gradient from 10% acetonitrile to 95% acetonitrile
Calibration was carried out using unbranched alkan-2-ones (having from 3 to 16 carbon atoms) with known logP values (the logP values were determined by the retention times using linear interpolation between two successive alkanones).

Series [2] has as its system caterpillars of the armyworm (Spodoptera frugiperda). The experiment in a line: Spodoptera frugiperda test (SPODFR spray treatment). In kind it is in vivo. Conditions: foliar, 168 h, read-out: activity (kill of caterpillars). The method, then:
Spodoptera frugiperda Test (SPODFR Spray Treatment)
Solvents: 78.0 parts by weight of acetone
(§1) • 1.5 parts by weight of dimethylformamide Emulsifier: 0.5 part by weight of alkylaryl polyglycol ether
(§2) To produce a suitable preparation of active compound, 1 part by weight of active compound is mixed with the stated amount of solvents and emulsifier, and the concentrate is diluted with emulsifier-containing water to the desired concentration.
Discs of maize leaves (Zea mays) are sprayed with an active compound preparation of the desired concentration and, after drying, populated with caterpillars of the armyworm (Spodoptera frugiperda).
After 7 days, the effect in % is determined. 100% means that all caterpillars have been killed; 0% means that none of the caterpillars have been killed.

Series [3] concerns larvae of the mustard beetle (Phaedon cochleariae). Kind of series: Phaedon test (PHAECO spray treatment). The settings on record: 168 h, read-out: activity (kill of beetle larvae). Type of series: in vivo. The procedure: Phaedon Test ([…] Spray Treatment) Solvents: 78.0 parts by weight of acetone • • 1.5 parts by weight of dimethylformamide Emulsifier: 0.5 part by weight of alkylaryl polyglycol ether To produce a suitable preparation of active compound, 1 part by weight of active compound is mixed with the stated amount of solvents and emulsifier, and the concentrate is diluted with emulsifier-containing water to the desired concentration. Discs of Chinese cabbage (Brassica pekinensis) are sprayed with an active compound preparation of the desired concentration and, after drying, populated with larvae of the mustard beetle (Phaedon cochleariae).

In series [4] the test system is green peach aphid (Myzus persicae). Kind of series: Myzus test (MYZUPE spray treatment). Type of series: in vivo. The settings on record: 144 h, sprayed Chinese cabbage discs, after 6 days, read-out: activity (kill of aphids). The method, then:
Myzus Test (MYZUPE Spray Treatment)
Solvents: 78 parts by weight of acetone
as §1, §2
Discs of Chinese cabbage (Brassica pekinensis) infested by all stages of the green peach aphid (Myzus persicae) are sprayed with an active compound preparation of the desired concentration.
After 6 days, the effect in % is determined. 100% means that all of the aphids have been killed; 0% means that none of the aphids have been killed.

The subject of series [5] is Lucilia cuprina larvae. Kind of series: Lucilia cuprina test (LUCICU). Conditions: 100 ppm, treated horse meat, after 2 days. In kind it is in vivo. The method, then:
Lucilia cuprina Test (LUCICU)
Solvent: dimethyl sulphoxide
To produce a suitable preparation of active compound, 10 mg of active compound are mixed with 0.5 ml of dimethyl sulphoxide and the concentrate is diluted with water to the desired concentration.
Vessels containing horse meat treated with the active compound of the desired concentration are populated with about 20 Lucilia cuprina larvae.
After 2 days, the kill in % is determined 100% means that all of the larvae have been killed; 0% means that none of the larvae have been killed.

Where [6] appears, read: HPLC, reversed-phase C 18, acidic range pH 2.7, 0.1% aqueous formic acid/acetonitrile, read-out: log P.
The mark [7] stands for this setting: reversed-phase C18 HPLC column, HPLC, reversed-phase C 18, acidic range pH 2.7, 0.1% aqueous formic acid/acetonitrile, read-out: log P.
[8] abbreviates: 100 g/ha, sprayed maize leaf discs, after 7 days.
The mark [9] stands for this setting: 100 g/ha, sprayed Chinese cabbage discs, after 7 days.

Take `Cc1cc(Br)cc(OC(F)F)c1N`: the chromatographic logP in series [1] (setting [6]) came to 2.84.
For `Cc1cc(C#N)cc(OC(F)F)c1N`, the chromatographic logP in series [1] (setting [6]) worked out at 1.9.
As for `Cc1cccc(C(=O)NS(C)(=O)=O)c1N`, in series [1] (setting [6]), the chromatographic logP was 1.1.
`Cc1cc(Cl)cc(C(=O)NS(=O)(=O)N(C)C)c1NC(=O)c1cc(Cn2cc(C(F)(F)C(F)(F)F)cn2)nn1-c1ncccc1Cl` [Compound 1] returned a chromatographic logP in series [1] (pH 2.7) of 3.35.
As to `Cc1cc(I)cc(C(=O)O)c1NC(=O)c1cc(Cn2nnc(C(F)(F)C(F)(F)F)n2)nn1-c1ncccc1Br` [Compound 2], the chromatographic logP in series [1] (setting [7]) was determined as 3.69. The pest or weed control at 100 g/ha was 100% in series [2] (setting [8]), 100% in series [3] (setting [9]) and 80% in series [4].
Regarding `Cc1cc(F)cc(C(=O)O)c1NC(=O)c1cc(Cn2nnc(C(F)(F)C(F)(F)F)n2)nn1-c1ncccc1Br` [Compound 3], the chromatographic logP in series [1] (setting [7]) came to 3.16. In addition, the pest or weed control at 100 g/ha in series [2] (setting [8]) worked out at 100%.
Take `Cc1cc(I)cc(C(=O)NS(C)(=O)=O)c1NC(=O)c1cc(Cn2nnc(C(F)(F)C(F)(F)F)n2)nn1-c1ncccc1Br` [Compound 4]: the chromatographic logP in series [1] (setting [7]) was found to be 3.39.
In the case of `Cc1cccc(C(=O)NS(C)(=O)=O)c1NC(=O)c1cc(Cn2nnc(C(F)(F)F)n2)nn1-c1ncccc1Cl` [Compound 5], the chromatographic logP in series [1] (pH 2.7) was found to be 2.47. The pest or weed control at 100 g/ha in series [2] (in Zea mays) is 100%.
With `Cc1cc(Br)cc(OC(F)F)c1NC(=O)c1cc(Cn2nnc(C(F)(F)F)n2)nn1-c1ncccc1Cl` [Compound 8], the chromatographic logP in series [1] (setting [7]) was determined as 3.77. Moreover, the “efficacy (kill)” value in series [5] amounted to 100%. The pest or weed control at 100 g/ha in series [2] (setting [8]) and in series [3] (setting [9]) was 100% in each case.
Consider `Cc1cc(Cl)cc(OC(F)(F)F)c1NC(=O)c1cc(Cn2nnc(C(F)(F)F)n2)nn1-c1ncccc1Cl` [Compound 10], for which, in series [1] (setting [7]), the chromatographic logP was 4. In series [2] (setting [8]), the pest or weed control at 100 g/ha amounted to 100%.
Consider `COC(=O)c1cc(I)cc(C)c1NC(=O)c1cc(Cn2nc(C(F)(F)F)cc2C(F)(F)F)nn1-c1ncccc1Cl` [Compound 11], for which, in series [1] (setting [7]), the chromatographic logP stood at 4.57.
Consider `Cc1cc(C#N)cc(C(=O)O)c1NC(=O)c1cc(Cn2nnc(C(F)(C(F)(F)F)C(F)(F)F)n2)nn1-c1ncccc1Cl` [Compound 13], for which, in series [1] (setting [7]), the chromatographic logP came out at 3.36. Further, the values for the pest or weed control at 100 g/ha in series [2] (setting [8]), in series [3] (setting [9]) and in series [4] were 100%, 100% and 80%, respectively.
Consider `Cc1cc(C#N)cc(C(=O)O)c1NC(=O)c1cc(Cn2nnc(C(F)(F)F)n2)nn1-c1ncccc1Cl` [Compound 14], for which the chromatographic logP in series [1] (setting [7]) came to 2.65. In addition, the values for the pest or weed control at 100 g/ha in series [2] (setting [8]) and in series [4] were 100% and 80%, respectively.
As to `O=C(O)c1cc(Cl)cc(Cl)c1NC(=O)c1cc(Cn2nc(C(F)(F)C(F)(F)C(F)(F)F)cc2C(F)(F)F)nn1-c1ncccc1Cl` [Compound 15], the chromatographic logP in series [1] (setting [6]) came out at 4.4. The pest or weed control at 100 g/ha in series [3] (in Brassica rapa) stood at 83%.
In the case of `Cc1cc(C#N)cc(C(=O)O)c1NC(=O)c1cc(Cn2cnc(C(F)(F)F)c2C(F)(F)F)nn1-c1ncccc1Cl` [Compound 16], the chromatographic logP in series [1] (setting [7]) worked out at 2.63. Further, the pest or weed control at 100 g/ha in series [3] (setting [9]) amounted to 100%.
`Cc1cc(Cl)cc(C(=O)O)c1NC(=O)c1cc(Cn2nc(C)c(Br)c2C)nn1-c1ncccc1Cl` [Compound 17]: in series [1] (setting [7]), the chromatographic logP came out at 3.16.
Same read-out and setting: the figure for `Cc1cc(C#N)cc(C(=O)O)c1NC(=O)c1cc(Cn2nc(C(F)F)cc2C(F)F)nn1-c1ncccc1Cl` [Compound 18] is 2.62.
In the case of `Cc1nc(C(F)(F)F)nn1Cc1cc(C(=O)Nc2c(Cl)cc(Cl)cc2C(=O)O)n(-c2ncccc2Cl)n1` [Compound 19], the chromatographic logP in series [1] (setting [7]) was 2.68. Further, the pest or weed control at 100 g/ha in series [4] was found to be 80%.
`Cc1cc(F)cc(C(=O)O)c1NC(=O)c1cc(Cn2nnc(C(F)(F)F)n2)nn1-c1ncccc1Cl` [Compound 20]: the chromatographic logP in series [1] (setting [7]) turned out to be 2.75.
In the case of `O=C(O)c1cc(Cl)cc(Cl)c1NC(=O)c1cc(Cn2nnc(C(F)(F)F)n2)nn1-c1ncccc1Cl` [Compound 21], the chromatographic logP in series [1] (setting [7]) stood at 3.04. Besides, the pest or weed control at 100 g/ha in series [2] (setting [8]) is 83%; in series [3] (setting [9]), 100%.
As for `Cc1cc(Cl)cc(C(=O)O)c1NC(=O)c1cc(Cn2nnc(C(F)(F)C(F)(F)F)n2)nn1-c1ncccc1Cl` [Compound 22], the chromatographic logP in series [1] (setting [7]) was found to be 3.44. Moreover, the pest or weed control at 100 g/ha in series [3] (setting [9]) came to 100%.
As for `O=C(O)c1cc(Cl)cc(Cl)c1NC(=O)c1cc(Cn2nnc(C(F)(F)C(F)(F)F)n2)nn1-c1ncccc1Cl` [Compound 23], the chromatographic logP in series [1] (setting [7]) is 3.37. In series [3] (setting [9]), the pest or weed control at 100 g/ha worked out at 100%.
As to `O=C(O)c1cc(Cl)cc(Cl)c1NC(=O)c1cc(Cn2nnc(C(F)F)n2)nn1-c1ncccc1Cl` [Compound 25], the chromatographic logP in series [1] (setting [7]) turned out to be 2.55.
Regarding `O=C(O)c1cc(Cl)cc(Cl)c1NC(=O)c1cc(Cn2ncc(C(F)(F)F)n2)nn1-c1ncccc1Cl` [Compound 26], in series [1] (setting [7]), the chromatographic logP was found to be 3.03. Further, the pest or weed control at 100 g/ha was determined as 100% in series [2] (setting [8]), 100% in series [3] (setting [9]) and 90% in series [4].
On to `Cc1cc(I)cc(C(=O)O)c1NC(=O)c1cc(Cn2ncc(C(F)(F)F)n2)nn1-c1ncccc1Cl` [Compound 27], for which the chromatographic logP in series [1] (setting [7]) worked out at 3.26. The pest or weed control at 100 g/ha in series [2] (setting [8]) is 83%.
For `O=C(O)c1cc(Cl)cc(Cl)c1NC(=O)c1cc(Cn2cc(C(F)(F)F)nn2)nn1-c1ncccc1Cl` [Compound 28], in series [1] (setting [7]), the chromatographic logP stood at 2.69. The pest or weed control at 100 g/ha in series [3] (setting [9]) and in series [4] was 100% in each case.
As for `COC(=O)c1cc(F)cc(C)c1NC(=O)c1cc(Cn2nnc(C(F)(F)F)n2)nn1-c1ncccc1Cl` [Compound 29], the chromatographic logP in series [1] (setting [7]) was 3.33. The figures for the pest or weed control at 100 g/ha in series [2] (setting [8]) and in series [3] (setting [9]) were 100% and 83%, respectively.
`Cc1cc(Cl)cc(C(=O)O)c1NC(=O)c1cc(Cn2nnc(C(F)(F)F)n2)nn1-c1ncccc1Cl` [Compound 30]: the chromatographic logP in series [1] (setting [7]) is 3.05. Moreover, the pest or weed control at 100 g/ha came to 83% in series [2] (setting [8]) and 80% in series [4].
In the case of `Cc1cc(C#N)cc(C(=S)NC(C)(C)C)c1NC(=O)c1cc(Cn2nnc(C(F)(F)F)n2)nn1-c1ncccc1Cl` [Compound 31], the chromatographic logP in series [1] (setting [7]) was determined as 3.75. Also, the values for the pest or weed control at 100 g/ha in series [2] (setting [8]), in series [3] (setting [9]) and in series [4] were 83%, 100% and 90%, respectively.
With `Cc1cccc(S(N)(=O)=O)c1NC(=O)c1cc(Cn2nnc(C(F)(F)F)n2)nn1-c1ncccc1Cl` [Compound 32], in series [1] (setting [7]), the chromatographic logP amounted to 2.56.
Still for that read-out and setting: next, `CNS(=O)(=O)c1cccc(C)c1NC(=O)c1cc(Cn2nnc(C(F)(F)F)n2)nn1-c1ncccc1Cl` [Compound 33]: 2.9.
`CCC(=O)c1cccc(C)c1NC(=O)c1cc(Cn2nnc(C(F)(F)F)n2)nn1-c1ncccc1Cl` [Compound 34]: the chromatographic logP in series [1] (setting [7]) was 3.35.
Consider `Cc1cccc(C(=O)C2CC2)c1NC(=O)c1cc(Cn2nnc(C(F)(F)F)n2)nn1-c1ncccc1Cl` [Compound 35], for which the chromatographic logP in series [1] (setting [7]) came out at 3.33. In addition, the pest or weed control at 100 g/ha in series [2] (setting [8]) was determined as 100%.
Turning to `CNC(=S)c1cc(I)cc(C)c1NC(=O)c1cc(Cn2nnc(C(F)(F)F)n2)nn1-c1ncccc1Cl` [Compound 36], the chromatographic logP in series [1] (setting [7]) is 3.73. Further, the pest or weed control at 100 g/ha in series [2] (setting [8]), in series [3] (setting [9]) and in series [4] was 100% in each case.
